Reference: patent publication US20060188913A1, “Methods and products for enhancing immune responses using imidazoquinoline compounds” (University of Iowa Research Foundation, priority 2001, published 2006)

Assays:
hTLR7 [1] = biological target: T1, hTLR7 (Homo sapiens, UniProt Q9NYK1); test: IL-8 production in 293 fibroblasts transiently expressing hTLR7; format: cell-based; conditions: CpG-ODN 2 μM, LPS 100 ng/ml
T1 construct: plasmids (pcDNA3.1 constructs) coding for full length hTLR2, hTLR7, hTLR8 and hTLR9; expressed in transfected cells; host or cells: 293T cells
T1 sequence (Q9NYK1 27-1049): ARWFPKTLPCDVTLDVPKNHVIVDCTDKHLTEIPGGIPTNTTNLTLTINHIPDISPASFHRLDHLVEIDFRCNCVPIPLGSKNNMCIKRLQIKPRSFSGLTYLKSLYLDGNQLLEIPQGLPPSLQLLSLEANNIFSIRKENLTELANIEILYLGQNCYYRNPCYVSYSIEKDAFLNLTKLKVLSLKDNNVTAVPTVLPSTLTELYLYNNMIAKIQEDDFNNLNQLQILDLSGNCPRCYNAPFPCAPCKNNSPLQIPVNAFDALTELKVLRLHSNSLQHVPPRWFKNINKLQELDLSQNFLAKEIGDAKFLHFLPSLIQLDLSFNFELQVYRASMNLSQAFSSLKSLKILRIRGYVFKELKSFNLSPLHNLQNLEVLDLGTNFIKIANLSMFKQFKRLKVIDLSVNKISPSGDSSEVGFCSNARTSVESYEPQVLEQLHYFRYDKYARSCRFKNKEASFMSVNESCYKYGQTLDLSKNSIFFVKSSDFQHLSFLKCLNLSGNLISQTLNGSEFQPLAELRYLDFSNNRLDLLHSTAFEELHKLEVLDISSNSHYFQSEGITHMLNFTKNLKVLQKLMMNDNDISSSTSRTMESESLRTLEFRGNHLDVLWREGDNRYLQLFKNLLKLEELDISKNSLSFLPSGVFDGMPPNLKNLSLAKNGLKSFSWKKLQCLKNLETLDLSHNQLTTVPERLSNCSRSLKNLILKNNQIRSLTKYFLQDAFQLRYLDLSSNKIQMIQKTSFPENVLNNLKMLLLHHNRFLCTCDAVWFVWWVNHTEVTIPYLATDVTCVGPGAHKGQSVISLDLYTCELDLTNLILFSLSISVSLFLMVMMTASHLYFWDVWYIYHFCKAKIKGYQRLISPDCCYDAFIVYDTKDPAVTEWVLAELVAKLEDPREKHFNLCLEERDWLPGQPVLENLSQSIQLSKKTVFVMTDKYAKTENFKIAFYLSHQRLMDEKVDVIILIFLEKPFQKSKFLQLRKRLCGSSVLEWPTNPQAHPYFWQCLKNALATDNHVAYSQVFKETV
Protocol: (§1) The cloned human TLR7 and human TLR8 cDNA were cloned into the expression vector pCDNA3. 1 (−) from Invitrogen using the NotI site. Utilizing a “gain of function” assay, hTLR7 and hTLR8 expression vectors were transiently expressed in human 293 fibroblasts (ATCC, CRL-1573) using the calcium phosphate method. Activation was monitored by IL-8 production after stimulus with CpG-ODN (2006 or 1668, 2 μM) or LPS (100 ng/ml).

hTLR8 [2] = biological target: T2, hTLR8 (Homo sapiens, UniProt Q9NR97); test: IL-8 production in 293 fibroblasts transiently expressing hTLR8; format: cell-based; conditions: CpG-ODN 2 μM, LPS 100 ng/ml
T2 construct: plasmids (pcDNA3.1 constructs) coding for full length hTLR2, hTLR7, hTLR8 and hTLR9; expressed in transfected cells; host or cells: 293T cells
T2 sequence (Q9NR97 27-1041): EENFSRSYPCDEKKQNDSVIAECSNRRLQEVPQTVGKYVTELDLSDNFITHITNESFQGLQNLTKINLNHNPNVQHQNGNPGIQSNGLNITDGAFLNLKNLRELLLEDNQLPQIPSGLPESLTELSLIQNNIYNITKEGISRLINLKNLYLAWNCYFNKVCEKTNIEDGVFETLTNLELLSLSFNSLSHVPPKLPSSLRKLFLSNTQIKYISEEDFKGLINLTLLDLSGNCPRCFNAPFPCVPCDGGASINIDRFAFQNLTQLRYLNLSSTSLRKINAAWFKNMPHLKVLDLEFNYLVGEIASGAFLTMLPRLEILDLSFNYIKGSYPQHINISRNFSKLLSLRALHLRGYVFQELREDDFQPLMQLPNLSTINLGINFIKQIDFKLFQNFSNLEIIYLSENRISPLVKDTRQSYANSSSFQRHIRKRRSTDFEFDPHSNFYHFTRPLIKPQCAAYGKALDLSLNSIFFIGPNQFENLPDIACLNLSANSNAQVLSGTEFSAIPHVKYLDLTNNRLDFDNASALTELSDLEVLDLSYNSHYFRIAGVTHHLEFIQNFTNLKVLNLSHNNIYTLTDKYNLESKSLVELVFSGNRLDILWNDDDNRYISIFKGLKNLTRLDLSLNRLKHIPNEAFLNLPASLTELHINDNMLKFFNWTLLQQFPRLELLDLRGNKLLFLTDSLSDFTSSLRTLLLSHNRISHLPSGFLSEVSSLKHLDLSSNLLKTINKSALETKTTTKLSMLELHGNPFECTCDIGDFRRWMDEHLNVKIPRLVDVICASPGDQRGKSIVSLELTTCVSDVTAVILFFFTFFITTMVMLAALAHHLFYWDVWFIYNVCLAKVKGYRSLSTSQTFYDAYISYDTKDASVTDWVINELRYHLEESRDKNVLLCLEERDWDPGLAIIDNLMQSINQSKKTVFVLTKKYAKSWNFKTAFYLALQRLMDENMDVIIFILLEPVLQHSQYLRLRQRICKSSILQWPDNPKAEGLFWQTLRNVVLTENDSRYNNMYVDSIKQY
Protocol: as §1

hTLR8 [3] = biological target: T2, hTLR8; test: NF-kappa B luciferase activation in 293T cells transiently transfected with hTLR8; format: cell-based; conditions: hTLR8-transfected 293T cells
Protocol: (§2) Cells used for transfections were 293T (human embryo kidney cells, T-antigen transfected) or 293-TLR9-Luc (stable transfectants, human embryo kidney cells expressing the human TLR9 receptor and containing a genomic NF-kappa B-luciferase cassette).
(§3) Transfections were performed in six-well plates. Cells were plated the day before transfection at 4×10^5/well in DMEM+10% FCS.
(§4) Constructs: TLR cDNAs were cloned into pcDNA3.1. NF-kappa B activation was measured by using an 5× NF-kappa B-Luciferase construct (Stratagene). Transfection efficiency was determined by using a beta-galactosidase (beta-gal) reporter construct (p beta-Gal-Control, Clontech).
(§5) Stimulation was performed 24 h after transfection. Medium of the cells was reduced to 1 ml (without medium change) and cells were stimulated with indicated amounts of R-848, LPS, ODN 8954, 2006 and IL-1 beta for 16 h.
(§6) Cell extracts were prepared by lysing the cells in 100 μl reporter lysis buffer using the freeze-thaw method. NF-kappa B stimulation was measured through luciferase activity (Promega). All data were normalized for beta-gal expression. Stimulation indices were calculated in reference to luciferase activity of medium without addition of ODN.
(§7) 293T cells, stably transfected with a NF-kappa B-luciferase reporter construct, were transiently transfected with plasmids (pcDNA3.1 constructs) coding for full length hTLR2, hTLR7, hTLR8 and hTLR9. […]

hTLR7 [4] = biological target: T1, hTLR7; test: NF-kappa B luciferase activation in 293T cells transiently transfected with hTLR7; format: cell-based; conditions: hTLR7-transfected 293T cells
Protocol: as §2, §3, §4, §5, §6, §7

hTLR2 = biological target: T3, hTLR2 (Homo sapiens, UniProt O60603); test: NF-kappa B luciferase activation in 293T cells transfected with hTLR2; format: cell-based
T3 construct: plasmids (pcDNA3.1 constructs) coding for full length hTLR2, hTLR7, hTLR8 and hTLR9; expressed in transfected cells; host or cells: 293T cells carrying an NF-kappa B-luciferase reporter
Protocol: as §2, §3, §4, §5, §6, §7

[5] = tested on: NF-kappa B luciferase reporter gene; test: NF-kappa B luciferase reporter in transfected 293T cells, TLR-independent positive control; format: cell-based, human; conditions: FIG. 2A
Protocol: as §2, §5, §6
293T cells, stably transfected with a NF-kappa B-luciferase reporter construct, were transiently transfected with plasmids (pcDNA3.1 constructs) coding for full length hTLR2, hTLR7, hTLR8 and hTLR9. All transfections were normalized to beta-galactosidase activity. Twenty-four hours following transfection, cells were stimulated with R-848, LPS, CpG ODN 8954 (5′ […] 3′, SEQ ID NO:4), CpG ODN 2006, or IL-1 and then assayed for luciferase activity 16 h after stimulation. Each experiment was done at least twice with similar results.

human PBMC [6] = test: IP-10 secretion by human PBMC (ELISA); format: cell-based; conditions: 48 hours, ODN 0.2-3.0 μg/ml versus R-848 0.01-1.0 μg/ml, FIG. 6A
Protocol: (§8) This experiment investigated the induction of the Th1 cytokine IFN-gamma as well as the Th1-related chemokine IP-10 (IFN-gamma inducible protein). Unfractionated human PBMC from three donors were incubated for 48 hours in the presence of varying concentrations of R-848 (0.01-1.0 μg/ml), varying concentrations of CpG ODN 2006 (0.2-3.0 μg/ml), varying concentrations of negative control ODN 5177 (0.2-3.0 μg/ml), SEB (50 ng/ml), or media alone, and then the concentrations of IP-10 and IFN-gamma in the supernatant were measured by ELISA.
In FIG. 6B, the combined effects of R-848 and CpG ODN (e.g., #2006) on IP-10 secretion are shown. Human PBMCs from three different donors were incubated for 48 hours with the indicated concentrations of ODNs and R-848, either individually or together. Supernatants were harvested and IP-10 was measured by ELISA. The data represent mean cytokine amounts.

human PBMC [7] = test: IFN-gamma secretion by human PBMC (ELISA); format: cell-based; conditions: 48 hours, compared to R-848, not shown
Protocol: as §8

T3 sequence (O60603 21-784): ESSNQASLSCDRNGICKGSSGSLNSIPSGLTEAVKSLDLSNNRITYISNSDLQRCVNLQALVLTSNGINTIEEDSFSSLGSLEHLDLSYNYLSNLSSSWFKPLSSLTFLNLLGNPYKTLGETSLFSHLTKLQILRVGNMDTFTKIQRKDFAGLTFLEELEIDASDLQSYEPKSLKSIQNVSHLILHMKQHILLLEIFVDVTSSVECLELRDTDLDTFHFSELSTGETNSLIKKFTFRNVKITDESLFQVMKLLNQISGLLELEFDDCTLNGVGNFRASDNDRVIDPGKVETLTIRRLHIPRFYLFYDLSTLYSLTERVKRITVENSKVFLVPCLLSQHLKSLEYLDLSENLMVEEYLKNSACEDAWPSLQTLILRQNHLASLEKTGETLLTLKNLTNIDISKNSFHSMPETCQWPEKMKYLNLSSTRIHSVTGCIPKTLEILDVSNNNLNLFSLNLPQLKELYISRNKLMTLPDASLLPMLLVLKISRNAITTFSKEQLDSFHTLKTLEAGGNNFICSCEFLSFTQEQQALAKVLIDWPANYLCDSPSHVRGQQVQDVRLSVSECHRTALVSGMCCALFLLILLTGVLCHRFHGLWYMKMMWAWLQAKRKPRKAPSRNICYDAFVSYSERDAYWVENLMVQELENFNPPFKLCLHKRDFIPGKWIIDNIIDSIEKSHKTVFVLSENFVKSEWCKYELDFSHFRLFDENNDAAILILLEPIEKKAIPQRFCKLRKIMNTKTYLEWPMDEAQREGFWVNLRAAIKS

Substance | activation monitored by IL-8 production (hTLR7 [1]) | activation monitored by IL-8 production (hTLR8 [2]) | NF-kappa B activation through hTLR8 (in words) (hTLR8 [3]) | NF-kappa B activation through hTLR7 (in words) (hTLR7 [4]) | further results
1668: CpG-ODN TCCATGACGTTCCTGATGCT, SEQ ID NO:12 (listed as DNA, chemistry not fully specified) [compound 1668] | None of the stimuli used activated | None of the stimuli used activated | – | – | –
lipopolysaccharide [LPS] | None of the stimuli used activated | None of the stimuli used activated | Neither LPS nor the CpG ODN 8954 appeared to activate | Neither LPS nor the CpG ODN 8954 appeared to activate | NF-kappa B activation through hTLR2 (in words) (hTLR2): activated by LPS
IL-1: cytokine used as positive control for NF-kappa B activation | – | – | – | – | activation of NF-kappa B luciferase reporter gene (in words) [5]: activated the NF-kappa B luciferase reporter gene in a TLR-independent manner
CpG ODN 8954: CpG ODN 5′ GGGGACGACGTCGTGGGGGGG 3′, SEQ ID NO:4 (listed as DNA, chemistry not fully specified) | – | – | Neither LPS nor the CpG ODN 8954 appeared to activate | Neither LPS nor the CpG ODN 8954 appeared to activate | –
ODN 5177: negative control ODN 5′ TCCGCCTGTGACATGCATT 3′; SEQ ID NO:5 (listed as DNA, chemistry not fully specified) | – | – | – | – | IP-10 induction (human PBMC [6]): but not the negative control ODN 5177 induced similar amounts of IP-10; IFN-gamma induction (human PBMC [7]): The same result was obtained
